From publication PMC10547880, “Synthesis and biological evaluation of novel 1,2,3-triazole hybrids of cabotegravir: identification of potent antitumor activity against lung cancer” (Frontiers in Pharmacology, 2023)

How the values were obtained:
Assay type in all cases: cell-based, Human
[1] = tested on: H460 cells; test: CCK8 cell viability and IC50 measurement, H460
Experimental: Human lung cancer cell line H460 and H1299, human liver normal cell line LO2 were bought from ATCC. DMEM or RPMI 1640 was used as the cell culture medium with 10% FBS and 1% penicillin/streptomycin. Cells were maintained in an incubator with 37°C humidified atmosphere and 5% CO2.
Cell viability and IC50 values were determined using the CCK8 assay kit. Cells were seeded at a density of 5 × 10^3 cells per well in a 96-well plate. After overnight adhesion, 25 μM of compounds or vehicle control DMSO which all dissolved in the culture medium were added to cells and cultured for 48 h or 72 h. CCK8 reagent, dissolved in the medium, was then added to cells and incubated for 1 h. The absorbance at 450 nm was measured using a microplate spectrophotometer (Thermo). Cell viability was calculated, with the untreated group taken as 100%. For IC50 values determination, different concentrations (0, 0.4 μM, 2 μM, 10 μM, 20 μM, 50 μM) of compounds were added to cells for 72 h. Subsequent CCK8 measurement allowed the calculation of inhibition percentage based on cell viability. The IC50 values were computed by the prism statistical software. The CCK-8 assay was conducted three times and the repetitions in each time were at least three. All the values were expressed as Mean ± SD, p < 0.05 was considered statistically significant.
In order to assess the potential cytotoxicity of the synthesized compounds, we selected two types of human non-small-cell lung cancer cell line, H460 and H1299. Cell viability and cytotoxicity were evaluated using the CCK8 assay ([Xu et al., 2018]). The cells were treated with 25 μM of compounds 5a-5s and 6a-6i for 48h and 72 h. […] In contrast, no compounds managed to reduce H1299 cell viability to less than 50%, yet compounds 5i, 5m, 6h and 6i achieved cell viability rates below 70%. […] It is worth noting that minimal effects on the cell viability of the normal cell line LO2 were observed when exposed to these compounds. Further, we determined the half-maximal inhibitory concentration (IC50) of selected compounds against H460 cells, the results of which were summarized in Table 3.

[2] = tested on: H460 cells; test: Live/dead cell staining (Calcein-AM/PI), H460; conditions: H460, 5, 10, 20 μM, 24 h
Experimental: Cells with a density of 5 × 10^3 cells per well were seeded in a 96-well plate. After overnight incubation, cells were treated with different concentrations (0, 5 μM, 10 μM, 20 μM) of compounds for 24 h. The LIVE/DEAD Assay Kit was used to dye cells, and cells were observed and photographed under a fluorescent microscope. Live and Dead cell numbers were counted and the ratio of dead to living cells were calculated. Values were expressed as Mean ± SEM, p < 0.05 was considered statistically significant. Data were performed using Graph Prim 7.0. To assess the anti-proliferative effects of compound 5i, live/dead cell staining was performed using Calcein Acetoxymethyl Ester (Calcein-AM) and Propidium Iodide (PI) dyes ([Xie et al., 2023]). Calcein-AM highlights live cells through green fluorescence emission, while PI identifies dead cells with damaged membrane integrity, producing red fluorescence. H460 and H1299 cells were treated with different concentrations (0, 5, 10 and 20 μM) of compound 5i for 24 h. After 24 h treatment, cells were stained with Calcein-AM and PI, diluted in cultured medium, and incubated for an hour in dark. Then the fluorescence was detected and photographed using a fluorescent microscope. […] In addition, we also performed plate clone formation assay ([Xu et al., 2018]) to further investigate the anti-proliferation ability of compound 5i. […]

[3] = tested on: H460 cells; test: Plate clone formation assay, H460; conditions: H460, 2-32 μM, particularly 16 μM and 32 μM
Experimental: (§1) Cells with the density of 500 cells per well were seeded in a 6-well plate. Different concentrations (0, 2 μM, 4 μM, 8 μM, 16 μM and 32 μM) of compounds were added to cells and maintained for a 72- hour duration. And cells were cultured until the monoclonal appeared. Afterward, cells were fixed with 4% paraformaldehyde and stained by Giemsa dye. The plate clone numbers were photographed and counted using a microscope. Values were expressed as Mean ± SEM, p < 0.05 was considered statistically significant. Data were performed using Graph Prim 7.0.
(§2) To assess the anti-proliferative effects of compound 5i, live/dead cell staining was performed using Calcein Acetoxymethyl Ester (Calcein-AM) and Propidium Iodide (PI) dyes ([Xie et al., 2023]). Calcein-AM highlights live cells through green fluorescence emission, while PI identifies dead cells with damaged membrane integrity, producing red fluorescence. H460 and H1299 cells were treated with different concentrations (0, 5, 10 and 20 μM) of compound 5i for 24 h. After 24 h treatment, cells were stained with Calcein-AM and PI, diluted in cultured medium, and incubated for an hour in dark. Then the fluorescence was detected and photographed using a fluorescent microscope. […] In addition, we also performed plate clone formation assay ([Xu et al., 2018]) to further investigate the anti-proliferation ability of compound 5i. […]

[4] = tested on: H1299 cells; test: Plate clone formation assay, H1299; conditions: H1299, 2-32 μM
Experimental: as §1, §2

[5] = tested on: H1299 cells; test: Apoptosis assay, Annexin V-FITC/PI flow cytometry, H1299; conditions: H1299, 72 h
Experimental: Cells with a density of 3 × 10^5 cells per well were seeded in 6-well plates. After overnight adhesion, cells were treated with different concentrations of compounds for 72 h. Cells were harvested and stained with Annexin V-FITC and propidium iodide. Apoptotic ratio was quantified using the flow cytometry (BD Biosciences) and analyzed using the FlowJo software v10. Values were expressed as Mean ± SD, p < 0.05 was considered statistically significant. Data were performed using Graph Prim 7.0.
Apoptosis is a programmed-controlled process of cell self-destruction, and increased cell apoptosis can lead to cell death ([Wang et al., 2023]). To explore the preliminary molecular mechanisms of the synthesized compounds action, the apoptotic activity of compound 5i was evaluated by comparing the percentage of apoptotic cells with untreated cells using flow cytometry after staining with Annexin V-FITC and PI ([Chen et al., 2022a]). This assay facilitates the detection of necrotic cells (Q1, AV-/PI+), late apoptotic cells (Q2, AV+/PI+), early apoptotic cells (Q3, AV+/PI-), and live cells (Q4, AV-/PI-). H460 and H1299 cells were treated with different doses of compound 5i for 72h, and cells were collected, stained, and analyzed. The proportion of early and late apoptotic cells was added and their ratio relative to the total cells was calculated.

IC50 ([1]; H460, 72 h, CCK8): 6.06 ± 1.8 µM
Structure (SMILES): COc1c2n(cc(C(=O)Nc3cccc(-c4cn(-c5ccccc5OC(F)(F)F)nn4)c3)c1=O)CC1OCC(C)N1C2=O (stereo not drawn) [Compound 5i]
cell proliferation inhibition rate ([1]; H460, 72-h treatment): exceed 50% | live and dead cell numbers [2]: significantly decreased the number of live cells and increased the number of dead cells | number of cell clones [3]: decreased | number of cell clones [4]: reduction in the number of cell clones | apoptotic cells (early + late) [5]: no significant change or even a decrease
